Reference: paper PMC10888192, “New Derivatives of 1-(3-Methyl-1-Benzofuran-2-yl)Ethan-1-one: Synthesis and Preliminary Studies of Biological Activity” (International Journal of Molecular Sciences, 2024)
Values after ≈ are worked out from the molar mass of the structure shown.

How the values were obtained:
[1] = system: Cacki-1 cells (human clear cell renal cell carcinoma); assay: MTT cytotoxicity assay, Cacki-1; type: cell-based; conditions: 72 h incubation
Method: (§1) The cell viability was analyzed at the following six concentrations of compounds: 5, 10, 20, 40, 60 and 100 µM after 72 h incubation.
(§2) Additionally, to determine the safety profile of the tested compounds, the therapeutic index (TI) (the ratio of IC50 value in HaCaT to cancer cells K562) was calculated. […] The goal of conducting the MTT assay in this research was to select benzofuran derivatives, which manage to reduce viability of cancer cells while exposing mild effects on normal healthy cells.
(§3) The cytotoxicity was evaluated by MTT reduction assay, which measures mitochondrial respiratory function. The test was performed based on the method described by Präbst et al.. Cells (1 × 10^4/well), in logarithmic phase, were seeded into 96-well plates in appropriate medium. After 24 h, cells were exposed to test compounds. […] After 72 h, the medium with the compounds was completely removed and MTT solution (0.5 mg/mL) in fresh medium without serum was added to each well. Plates with cells were incubated for 4 h at 37 °C in the dark. Then, MTT solution was removed and replenished with 0.1 mL DMSO: isopropanol (1:1) mixture to dissolve the generated formazan crystals. The optical density was measured with a […] GO (ThermoScientific) microplate reader at 570 nm. Replicates of three wells for each dosage, including vehicle control, were analyzed for each experiment. The experiments were conducted in triplicate. Control cells which were only treated with respective medium were used as the 100% viability value. […] Additionally, to determine the safety profile of the test compounds, therapeutic indexes (TI) (the ratio of IC50 values in HaCat to cancer cells (K562, PC3, SW620, Cack-1)) were calculated.

[2] = system: K562 cells (human chronic myelogenous leukemia); assay: MTT cytotoxicity assay, K562; type: cell-based; conditions: 72 h incubation, mean ± SD
Method: as §1, §2, §3

[3] = system: HaCaT cells (human immortal keratinocytes); assay: MTT cytotoxicity assay, HaCaT; type: cell-based; conditions: 72 h incubation, mean ± SD
Method: as §1, §2, §3

[4] = system: SW620 cells (human metastatic colon cancer); assay: MTT cytotoxicity assay, SW620; type: cell-based; conditions: SW-620, 72 h incubation, mean ± SD
Method: as §1, §2, §3

[5] = system: PC3 cells (human metastatic prostate cancer); assay: MTT cytotoxicity assay, PC3; type: cell-based; conditions: PC-3, 72 h incubation, mean ± SD
Method: as §1, §2, §3

HeLa cancer cells = system: HeLa cancer cells; set-up: method as in PMID 20657389, PMID 25482722, PMID 30465514, PMID 31003438; conditions: lead compound; ref [32],[33],[34],[35]; cited from earlier work
HL-60 leukemic cell line = system: HL-60 leukemic cell line; set-up: method as in PMID 20657389, PMID 25482722, PMID 30465514, PMID 31003438; conditions: lead compound; ref [32],[33],[34],[35]; cited from earlier work
K562 leukemic cell line = system: K562 leukemic cell line; set-up: method as in PMID 20657389, PMID 25482722, PMID 30465514, PMID 31003438; conditions: lead compound; ref [32],[33],[34],[35]; cited from earlier work
clinical strains = assay: organism not typed; type: cell-based; conditions: read-out: MIC clinical strains
Method: (§4) The antimicrobial activity of compounds was expressed by minimum inhibitory concentration values (MICs), according to CLCI reference procedures with some modifications. MIC was tested by the two-fold serial microdilution method (in 96-well microtiter plates) on MH II liquid medium. The final inoculum of all of the studied bacteria was 10^6 CFU/mL (colony forming unit per mL). The stock solution of tested compounds was prepared in DMSO and was diluted in sterile medium (to a maximum of 1% of solvent content). The concentrations of compounds were from 16 to 512 µg/mL. […] Clinical microorganisms used in this study were obtained from the collection of the Department of Pharmaceutical Microbiology, Medical University of Warsaw, Poland [70, 71].

P. aeruginosa ATCC 15442 = assay: MIC, microdilution; type: cell-based; conditions: Pseudomonas aeruginosa, ATCC15442; 18 h, 35 °C, MH II medium
Method: (§5) The antimicrobial studies for all of the obtained compounds were conducted using reference strains of bacteria derived from international microbe collections—the American Type Culture Collection (ATCC) and the National Collection of Type Culture (NCTC). Among the reference strains there were two Gram-negative rods (P. aeruginosa ATCC 15442 and E. coli ATCC 25922) and six Gram-positive isolates (Staphylococcus aureus: NCTC 4163, ATCC 25923, ATCC 6538, ATCC 29213, S. epidermidis ATCC 12228, ATCC 35984).
as §4

S.aureus ATCC 25923 = assay: MIC, microdilution; type: cell-based; conditions: Staphylococcus aureus, ATCC25923; 18 h, 35 °C, MH II medium
Method: as §5, §4

S.aureus NCTC 29213 = assay: MIC, microdilution; type: cell-based; conditions: Staphylococcus aureus, NCTC29213, 18 h, read-out: MIC S.aureus NCTC 29213
Method: as §5, §4

[6] = system: S. epidermidis ATCC 35984; assay: MIC, microdilution; type: cell-based; conditions: Staphylococcus epidermidis, ATCC35984; 18 h, 35 °C, MH II medium
Method: as §5, §4

S.aureus ATCC 6538 = assay: MIC, microdilution; type: cell-based; conditions: Staphylococcus aureus, ATCC6538; 18 h, 35 °C, MH II medium
Method: as §5, §4

[7] = system: S. epiderminis ATCC 122228; assay: MIC, microdilution; type: cell-based; conditions: Staphylococcus epidermidis, ATCC122228, 18 h, read-out: MIC S. epiderminis ATCC 122228
Method: as §5, §4

S.aureus NCTC 4163 = assay: MIC, microdilution; type: cell-based; conditions: Staphylococcus aureus, NCTC4163; 18 h, 35 °C, MH II medium
Method: as §5, §4

E. coli ATCC 25922 = assay: MIC, microdilution; type: cell-based; conditions: Escherichia coli, ATCC25922; 18 h, 35 °C, MH II medium
Method: as §5, §4

Row | Compound | melting point [°C] | IC50 [1] [µM] | IC50 [2] [µM] | IC50 [3] [µM] | IC50 [4] [µM] | IC50 [5] [µM] | also measured
1 | COc1ccc2oc(C(C)=O)c(C)c2c1 [Compound 1, 1-(5-Methoxy-3-Methyl-1-Benzofuran-2-yl)Ethanone] | 93 to 96 | > 100 | 57 ± 3.5 | > 100 | > 100 | 80 ± 20 | –
2 | COc1cc(OC)c2c(C)c(C(C)=O)oc2c1 [Compound 2, 1-(4,6-Dimethoxy-3-Methyl-1-Benzofuran-2-yl)Ethanone] | 115 to 118 | > 100 | 36.3 ± 4.5 | 67.3 ± 29.7 | > 100 | > 100 | –
3 | COc1cc2c(CBr)c(C(C)=O)oc2c(C(C)=O)c1OC [1,1′-[3-(bromomethyl)-5,6-dimethoxy-1-benzofuran-2,7-diyl]diethanone] | – | – | – | – | – | – | Toxicity toward HeLa cancer cells (HeLa cancer cells): exhibiting toxicity toward neither HeLa cancer cells; IC50 (HL-60 leukemic cell line): 0.1 µM; IC50 (K562 leukemic cell line): 5 µM
4 | CCOc1ccc2c(C)c(C(C)=O)oc2c1 [Compound 4, 1-(6-Ethoxy-3-Methyl-1-Benzofuran-2-yl)Ethanone] | 86 to 90 | > 100 | 60 ± 9 | 55.3 ± 33.4 | > 100 | > 100 | –
5 | COc1cccc2c1C(=O)c1c(O)c3c(c(O)c1C2=O)C[C@@](O)(C(=O)CO)C[C@@H]3O[C@H]1C[C@H](N)[C@H](O)[C@H](C)O1 [Doxorubicin, reference compound] | – | – | 0.21 ± 0.1 | – | – | – | –
6 | COc1ccc2oc(C(C)=O)c(CBr)c2c1 [Compound 5, 1-[3-(Bromomethyl)-5-Methoxy-1-Benzofuran-2-yl]Ethanone] | 103 to 106 | > 100 | 10.3 ± 0.55 | 15 ± 0.8 | 15.6 ± 4.1 | 17.5 ± 3.5 | –
7 | CCOc1cccc2oc(C(C)=O)c(C)c12 [Compound 3, 1-(4-Ethoxy-3-Methyl-1-Benzofuran-2-yl)Ethanone] | 60 to 65 | > 100 | 58 ± 21.1 | > 100 | 52.3 ± 22.5 | 66.4 ± 28.7 | –
8 | CCOc1ccc2c(CBr)c(C(C)=O)oc2c1 [Compound 9, 1-[3-(Bromomethyl)-6-Ethoxy-1-Benzofuran-2-yl]Ethanone] | 98 to 105 | > 100 | 14.4 ± 3.7 | 22.8 ± 1.51 | > 100 | 40 ± 20 | –
9 | COc1cc2oc(C(C)=O)c(CBr)c2c(OC)c1Br [Compound 7, 1-[5-Bromo-3-(Bromomethyl)-4,6-Dimethoxy-1-Benzofuran-2-yl]Ethanone] | 165 to 171 | > 100 | 50 ± 10 | 5.69 ± 5.67 | 47.1 ± 22.2 | 40 ± 15 | MIC (clinical strains): > 250 µg/mL; MIC (P. aeruginosa ATCC 15442): > 512 µg/mL; MIC (S.aureus ATCC 25923): 16 µg/mL (≈ 40.8 µM); MIC (S.aureus NCTC 29213): 32 µg/mL (≈ 81.6 µM); MIC [6]: 16 µg/mL (≈ 40.8 µM); MIC (S.aureus ATCC 6538): 64 µg/mL (≈ 163 µM); MIC [7]: 16 µg/mL (≈ 40.8 µM); MIC (S.aureus NCTC 4163): > 512 µg/mL; MIC (E. coli ATCC 25922): > 512 µg/mL
10 | CC(C)C[C@H](NC(=O)[C@H](Cc1ccccc1)NC(=O)c1cnccn1)B(O)O [Bortezomib, reference compound] | – | – | 0.04 ± 0.01 | – | – | – | –
